According to article PMC12670405, “Second-Generation AURKA-Targeting PROTACs: Structural Optimization toward in Vivo Degradation in Neuroblastoma” (Journal of Medicinal Chemistry, 2025):

Legend:
[1] = target: T1, DAPK3 (Homo sapiens, UniProt O43293); test: KINOMEscan scanMAX; format: binding; settings: read-out: Percent Control
T1 construct: purchased Eurofins Discovery (DiscoverX KINOMEscan scanMAX)
Experimental: (§1) The kinome-wide binding assay was performed by Eurofins Discovery using the scanMAX screening platform. More information can be found on the Eurofins Discovery Web site.

[2] = target: T2, ACVRL1 (Homo sapiens, UniProt P37023); test: KINOMEscan scanMAX; format: binding; settings: read-out: Percent Control
T2 construct: purchased Eurofins Discovery (DiscoverX KINOMEscan scanMAX)
Experimental: as §1

[3] = target: T3, PAK1 (Homo sapiens, UniProt Q13153); test: KINOMEscan scanMAX; format: binding; settings: read-out: Percent Control
T3 construct: purchased Eurofins Discovery (DiscoverX KINOMEscan scanMAX)
Experimental: as §1

[4] = target: T4, ULK2 (Homo sapiens, UniProt Q8IYT8); test: KINOMEscan scanMAX; format: binding; settings: read-out: Percent Control
T4 construct: purchased Eurofins Discovery (DiscoverX KINOMEscan scanMAX)
Experimental: as §1

[5] = target: T5, NEK4 (Homo sapiens, UniProt P51957); test: KINOMEscan scanMAX; format: binding; settings: read-out: Percent Control
T5 construct: purchased Eurofins Discovery (DiscoverX KINOMEscan scanMAX)
Experimental: as §1

[6] = target: T6, DYRK2 (Homo sapiens, UniProt Q92630); test: KINOMEscan scanMAX; format: binding; settings: read-out: Percent Control
T6 construct: purchased Eurofins Discovery (DiscoverX KINOMEscan scanMAX)
Experimental: as §1

[7] = target: T7, CDKL3 (Homo sapiens, UniProt Q8IVW4); test: KINOMEscan scanMAX; format: binding; settings: read-out: Percent Control
T7 construct: purchased Eurofins Discovery (DiscoverX KINOMEscan scanMAX)
Experimental: as §1

[8] = target: T8, AURKA (Homo sapiens, UniProt O14965); test: LC-MS/MS proteome profiling; format: cell-based; design: endogenous in cells; host or cells: IMR-32; key to Significant (3h SK5527vs3h DMSO) FDR0 05 / Significant (24h SK5527vs24h DMSO) FDR0 05: +: Statistical significance for differential regulation was set to a false discovery rate (FDR) of < 0.05 and |log2FC| = 2
T8 sequence (O14965 1-403): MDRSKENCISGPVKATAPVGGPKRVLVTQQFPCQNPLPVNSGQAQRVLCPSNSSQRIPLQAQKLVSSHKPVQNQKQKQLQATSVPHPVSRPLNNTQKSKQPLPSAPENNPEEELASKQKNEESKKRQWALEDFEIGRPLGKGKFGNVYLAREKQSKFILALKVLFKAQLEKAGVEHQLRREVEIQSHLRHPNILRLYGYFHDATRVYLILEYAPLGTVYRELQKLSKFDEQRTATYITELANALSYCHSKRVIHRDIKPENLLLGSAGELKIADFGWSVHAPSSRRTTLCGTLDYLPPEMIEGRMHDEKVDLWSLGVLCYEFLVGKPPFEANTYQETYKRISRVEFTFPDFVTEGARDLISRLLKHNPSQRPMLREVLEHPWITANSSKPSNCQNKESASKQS
Experimental: IMR-32 cells were seeded in T-25 flasks at a density of 1.7 million cells/flask and treated the next day with DMSO (negative control), SK5527 (500 nM) or MK-5108 (500 nM) for 3 or 24 h (data for MK-5108 not discussed in this manuscript). Cell pellets were harvested at the respective time points, lysed, and the concentration of the obtained protein lysates measured as previously described. Details on further sample preparation, LC–MS/MS, and data analysis can be found in the Supporting Information. The LC–MS/MS proteomics data have been deposited to the ProteomeXchange Consortium via the PRIDE partner repository with the data set identifier PXD061539.
Supplementary Methods 1 – LC-MS/MS proteomics
From each sample, 100 µg of protein was isolated, the volumes were equalized with water and SDS and TEAB were added to a final concentration of 5% and 50 mM, respectively. Proteins were reduced and alkylated by addition of 10 mM Tris(2-carboxyethyl)phosphine hydrochloride and 40 mM chloroacetamide and incubation for 30 minutes at 25°C in the dark. Phosphoric acid was added to a final concentration of 1.2%, and samples were subsequently diluted 7-fold with binding buffer containing 90% methanol in 100 mM TEAB, pH 7.55. The samples were loaded on the 96-well S-Trap™ plate (Protifi), placed on top of a deepwell plate, and centrifuged for 2 min at 1,500 x g at RT. After protein binding, the S-trap™ plate was washed three times by adding 200 µl binding buffer and centrifugation for 2 min at 1,500 x g at RT. A new deepwell receiver plate was placed below the 96-well S-Trap™ plate and 50 mM TEAB containing trypsin (1/100, w/w) was added for digestion overnight at 37°C.
Using centrifugation for 2 min at 1,500 x g, peptides were eluted in three steps, first with 80 µl 50 mM TEAB, then with 80 µl 0.2% formic acid (FA) in water and finally with 80 µl 0.2% FA in water/acetonitrile (ACN) (50/50, v/v). Eluted peptides were dried completely by vacuum centrifugation.
Peptides were re-dissolved in 20 µl loading solvent A (0.1% trifluoroacetic acid in water/acetonitrile (ACN) (99.5:0.5, v/v)) of which 2 µl of sample was injected for LC-MS/MS analysis on an Ultimate 3000 ProFlow nanoLC system in-line connected to a Orbitrap Exploris 240 mass spectrometer (Thermo) equipped with pneu-Nimbus dual ion source (Phoenix S&T). Trapping was performed at 20 μl/min for 2 min in loading solvent A on a PepMap™ Neo Trap column (Thermo scientific, 300 μm internal diameter (I.D.), 5 μm beads). The peptides were separated on a 250 mm Odyssey Ultimate, 1.7µm C18, 75 µm inner diameter (Ionopticks) kept at a constant temperature of 45°C. Peptides were eluted by a gradient reaching 26,4 % MS solvent B (0.1% FA in acetonitrile) after 80 min, 44% MS solvent B at 95 min, 56% MS solvent B at 100min followed by a 5-minutes wash at 56% MS solvent B and re-equilibration with MS solvent A (0.1% FA in water). The flow rate was set to 250 nl/min. The mass spectrometer was operated in data-independent mode, automatically switching between MS and MS/MS acquisition. Full-scan MS spectra ranging from 375-1500 m/z with a normalized target value of 300%, a maximum fill time of 25 ms and a resolution at of 60,000 were followed by 30 quadrupole isolations with a precursor isolation width of 10 m/z for HCD fragmentation at an NCE of 30% after filling the trap at a normalized target value of 2000% for maximum injection time of 45 ms. MS2 spectra were acquired at a resolution of 15,000 with a scan range of 200-1800 m/z in the Orbitrap analyser without multiplexing. The isolation intervals were set from 400 – 900 m/z with a width of 10 m/z using window placement optimization. The polydimethylcyclosiloxane background ion at 445.120028 Da was used for internal calibration (lock mass) and QCloud has been used to control instrument longitudinal performance during the project.
Analysis of the mass spectrometry data was performed in DiaNN (version 1.9). Precursor false discovery rate was […]
set at 1%. […]

T4 sequence (Q8IYT8 whole entry): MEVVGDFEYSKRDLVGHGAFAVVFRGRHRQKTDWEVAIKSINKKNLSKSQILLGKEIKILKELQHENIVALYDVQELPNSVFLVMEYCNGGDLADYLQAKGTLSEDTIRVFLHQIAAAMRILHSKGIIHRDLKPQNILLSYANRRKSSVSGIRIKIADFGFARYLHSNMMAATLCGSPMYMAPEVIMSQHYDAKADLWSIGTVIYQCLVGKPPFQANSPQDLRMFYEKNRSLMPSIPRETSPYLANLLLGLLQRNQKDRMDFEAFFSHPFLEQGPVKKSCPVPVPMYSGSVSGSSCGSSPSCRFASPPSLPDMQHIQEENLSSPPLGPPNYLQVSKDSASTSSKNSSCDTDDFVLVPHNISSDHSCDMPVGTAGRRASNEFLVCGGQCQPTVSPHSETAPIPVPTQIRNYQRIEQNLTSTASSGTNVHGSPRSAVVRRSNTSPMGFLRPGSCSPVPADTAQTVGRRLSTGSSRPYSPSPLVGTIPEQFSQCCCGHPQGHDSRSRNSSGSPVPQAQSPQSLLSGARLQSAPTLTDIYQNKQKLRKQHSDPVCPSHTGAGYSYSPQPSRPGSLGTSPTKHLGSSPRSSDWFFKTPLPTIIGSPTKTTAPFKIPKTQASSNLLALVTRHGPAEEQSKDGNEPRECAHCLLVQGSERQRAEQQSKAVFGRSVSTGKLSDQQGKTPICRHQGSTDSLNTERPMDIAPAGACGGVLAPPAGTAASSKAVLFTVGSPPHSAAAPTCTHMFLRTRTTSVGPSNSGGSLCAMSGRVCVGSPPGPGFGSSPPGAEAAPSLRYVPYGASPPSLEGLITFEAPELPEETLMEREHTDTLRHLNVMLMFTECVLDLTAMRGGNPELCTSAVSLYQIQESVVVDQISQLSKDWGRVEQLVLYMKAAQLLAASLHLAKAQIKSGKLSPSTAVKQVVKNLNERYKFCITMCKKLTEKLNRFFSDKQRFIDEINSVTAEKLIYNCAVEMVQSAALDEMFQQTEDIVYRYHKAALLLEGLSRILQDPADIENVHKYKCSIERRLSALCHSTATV
T1 sequence (O43293 whole entry): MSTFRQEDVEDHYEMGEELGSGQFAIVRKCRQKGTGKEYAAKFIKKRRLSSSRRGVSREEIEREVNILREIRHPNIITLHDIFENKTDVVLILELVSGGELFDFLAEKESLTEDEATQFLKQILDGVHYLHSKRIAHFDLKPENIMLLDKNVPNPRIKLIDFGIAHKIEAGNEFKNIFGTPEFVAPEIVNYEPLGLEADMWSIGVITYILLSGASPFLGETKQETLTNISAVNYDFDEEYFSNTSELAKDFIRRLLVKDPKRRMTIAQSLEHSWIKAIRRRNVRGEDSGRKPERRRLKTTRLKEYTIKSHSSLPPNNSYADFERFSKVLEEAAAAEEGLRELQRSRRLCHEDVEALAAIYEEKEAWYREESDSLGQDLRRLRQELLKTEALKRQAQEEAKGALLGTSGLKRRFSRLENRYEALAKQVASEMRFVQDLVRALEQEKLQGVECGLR
T5 sequence (P51957 whole entry): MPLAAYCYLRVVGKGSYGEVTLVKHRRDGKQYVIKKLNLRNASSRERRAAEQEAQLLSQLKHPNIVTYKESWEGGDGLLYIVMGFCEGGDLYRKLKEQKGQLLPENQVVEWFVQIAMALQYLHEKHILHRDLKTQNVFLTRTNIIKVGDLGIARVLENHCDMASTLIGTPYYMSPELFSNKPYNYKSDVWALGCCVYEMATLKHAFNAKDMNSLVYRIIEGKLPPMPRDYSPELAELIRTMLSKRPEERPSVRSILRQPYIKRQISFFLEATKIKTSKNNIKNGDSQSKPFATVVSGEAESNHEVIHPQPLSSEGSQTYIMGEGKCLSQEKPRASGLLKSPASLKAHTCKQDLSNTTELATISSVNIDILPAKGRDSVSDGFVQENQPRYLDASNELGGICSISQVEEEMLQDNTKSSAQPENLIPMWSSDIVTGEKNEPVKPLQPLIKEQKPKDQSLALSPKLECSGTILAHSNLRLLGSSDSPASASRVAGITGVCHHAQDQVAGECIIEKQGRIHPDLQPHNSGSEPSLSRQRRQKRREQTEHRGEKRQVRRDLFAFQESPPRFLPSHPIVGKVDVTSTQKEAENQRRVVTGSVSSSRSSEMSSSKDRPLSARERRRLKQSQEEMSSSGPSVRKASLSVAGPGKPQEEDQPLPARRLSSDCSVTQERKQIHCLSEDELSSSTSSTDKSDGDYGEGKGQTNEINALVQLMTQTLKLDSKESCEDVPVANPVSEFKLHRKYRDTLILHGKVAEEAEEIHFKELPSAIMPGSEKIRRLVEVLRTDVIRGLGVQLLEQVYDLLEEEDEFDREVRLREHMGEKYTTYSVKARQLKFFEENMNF
T6 sequence (Q92630 whole entry): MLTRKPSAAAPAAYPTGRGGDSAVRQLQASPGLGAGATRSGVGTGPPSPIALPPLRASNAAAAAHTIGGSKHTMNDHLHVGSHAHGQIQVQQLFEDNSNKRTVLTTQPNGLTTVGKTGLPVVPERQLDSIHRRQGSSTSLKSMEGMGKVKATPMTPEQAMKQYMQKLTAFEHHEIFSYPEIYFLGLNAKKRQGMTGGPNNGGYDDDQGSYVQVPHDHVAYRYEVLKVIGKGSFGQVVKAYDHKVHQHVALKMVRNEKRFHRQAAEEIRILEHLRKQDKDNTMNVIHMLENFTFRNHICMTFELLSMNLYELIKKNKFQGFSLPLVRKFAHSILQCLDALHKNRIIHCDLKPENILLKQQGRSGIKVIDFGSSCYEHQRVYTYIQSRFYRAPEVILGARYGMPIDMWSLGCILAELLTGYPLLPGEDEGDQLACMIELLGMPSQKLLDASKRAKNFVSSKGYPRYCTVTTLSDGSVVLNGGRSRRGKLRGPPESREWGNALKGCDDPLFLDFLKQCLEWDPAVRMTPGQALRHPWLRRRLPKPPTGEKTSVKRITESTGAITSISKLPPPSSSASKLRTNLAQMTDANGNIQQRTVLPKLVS
T7 sequence (Q8IVW4 whole entry): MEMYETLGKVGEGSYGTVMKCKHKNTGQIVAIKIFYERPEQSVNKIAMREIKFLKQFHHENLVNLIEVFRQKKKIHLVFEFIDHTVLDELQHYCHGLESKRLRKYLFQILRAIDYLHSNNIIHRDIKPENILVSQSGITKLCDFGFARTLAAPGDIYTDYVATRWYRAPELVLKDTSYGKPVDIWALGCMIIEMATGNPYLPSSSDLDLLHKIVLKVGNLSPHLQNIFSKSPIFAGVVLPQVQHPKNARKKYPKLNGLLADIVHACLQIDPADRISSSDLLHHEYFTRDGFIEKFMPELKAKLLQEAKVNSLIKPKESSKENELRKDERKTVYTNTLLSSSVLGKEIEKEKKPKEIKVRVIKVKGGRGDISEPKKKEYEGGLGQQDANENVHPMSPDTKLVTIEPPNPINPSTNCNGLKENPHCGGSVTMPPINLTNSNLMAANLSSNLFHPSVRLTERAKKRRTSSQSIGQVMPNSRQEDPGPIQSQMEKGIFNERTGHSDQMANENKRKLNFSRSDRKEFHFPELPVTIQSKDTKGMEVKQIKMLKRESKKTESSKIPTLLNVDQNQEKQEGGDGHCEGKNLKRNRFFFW
T2 sequence (P37023 22-503): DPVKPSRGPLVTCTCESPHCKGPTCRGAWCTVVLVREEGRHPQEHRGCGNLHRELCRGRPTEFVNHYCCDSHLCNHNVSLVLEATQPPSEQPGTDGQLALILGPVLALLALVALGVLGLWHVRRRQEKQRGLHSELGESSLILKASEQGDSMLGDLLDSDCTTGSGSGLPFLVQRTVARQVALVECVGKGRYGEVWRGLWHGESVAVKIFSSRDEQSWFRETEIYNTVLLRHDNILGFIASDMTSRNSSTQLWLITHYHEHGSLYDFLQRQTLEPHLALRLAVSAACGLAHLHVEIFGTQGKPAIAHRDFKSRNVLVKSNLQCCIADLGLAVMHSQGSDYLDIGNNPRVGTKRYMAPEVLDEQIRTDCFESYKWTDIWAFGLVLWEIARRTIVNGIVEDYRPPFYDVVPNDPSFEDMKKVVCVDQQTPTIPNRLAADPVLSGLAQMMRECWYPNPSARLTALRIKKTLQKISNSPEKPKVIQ
T3 sequence (Q13153 whole entry): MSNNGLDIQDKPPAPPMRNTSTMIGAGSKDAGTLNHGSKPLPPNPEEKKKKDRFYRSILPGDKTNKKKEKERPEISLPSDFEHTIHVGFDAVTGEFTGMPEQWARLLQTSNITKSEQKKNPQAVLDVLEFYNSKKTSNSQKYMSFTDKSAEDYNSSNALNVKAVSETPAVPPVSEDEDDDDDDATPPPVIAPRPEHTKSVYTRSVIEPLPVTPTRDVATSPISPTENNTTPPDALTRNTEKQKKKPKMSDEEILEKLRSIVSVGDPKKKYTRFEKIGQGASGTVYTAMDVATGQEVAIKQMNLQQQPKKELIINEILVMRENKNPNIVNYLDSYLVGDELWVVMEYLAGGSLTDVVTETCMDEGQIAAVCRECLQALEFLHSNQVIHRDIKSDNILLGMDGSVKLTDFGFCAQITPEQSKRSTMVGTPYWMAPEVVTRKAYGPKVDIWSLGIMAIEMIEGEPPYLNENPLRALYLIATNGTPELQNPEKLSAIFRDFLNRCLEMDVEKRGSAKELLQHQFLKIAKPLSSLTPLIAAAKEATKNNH

Cc1cc(Nc2ccc(F)c(CC3(C(=O)N4CCC(F)(CN5CCN(c6ccc(N7CCC(=O)NC7=O)cn6)CC5)CC4)CCN(Cc4cccc(Cl)c4F)CC3)n2)n[nH]1 [SK5527]
remaining binding at 0.1 µM ([1]; 100 nM): 100% | remaining binding at 1 µM ([1]; 1000 nM): 100% | remaining binding at 0.1 µM ([2]; 100 nM): 100% | remaining binding at 1 µM ([2]; 1000 nM): 100% | remaining binding at 0.1 µM ([3]; 100 nM): 100% | remaining binding at 1 µM ([3]; 1000 nM): 88% | remaining binding at 0.1 µM ([4]; 100 nM): 89% | remaining binding at 1 µM ([4]; 1000 nM): 78% | remaining binding at 0.1 µM ([5]; 100 nM): 72% | remaining binding at 1 µM ([5]; 1000 nM): 65% | remaining binding at 0.1 µM ([6]; 100 nM): 100% | remaining binding at 1 µM ([6]; 1000 nM): 80% | remaining binding at 0.1 µM ([7]; 100 nM): 100% | remaining binding at 1 µM ([7]; 1000 nM): 83% | Significant (3h SK5527vs3h DMSO) FDR0 05 ([8]; IMR-32, 3h): + | logFC (3h SK5527vs3h DMSO) ([8]; IMR-32, 3h): -3.27 | Significant (24h SK5527vs24h DMSO) FDR0 05 ([8]; IMR-32, 24h): + | logFC (24h SK5527vs24h DMSO) ([8]; IMR-32, 24h): -3.1 | logFC AURKA ([8]; SK5527 vs DMSO (3h)): -3.27 | logFC AURKA ([8]; SK5527 vs DMSO (24h)): -3.1
